Each structure is given as a SMILES string. Bounds are passed on as bounds.

Sequence of FP receptor (P43088 whole entry): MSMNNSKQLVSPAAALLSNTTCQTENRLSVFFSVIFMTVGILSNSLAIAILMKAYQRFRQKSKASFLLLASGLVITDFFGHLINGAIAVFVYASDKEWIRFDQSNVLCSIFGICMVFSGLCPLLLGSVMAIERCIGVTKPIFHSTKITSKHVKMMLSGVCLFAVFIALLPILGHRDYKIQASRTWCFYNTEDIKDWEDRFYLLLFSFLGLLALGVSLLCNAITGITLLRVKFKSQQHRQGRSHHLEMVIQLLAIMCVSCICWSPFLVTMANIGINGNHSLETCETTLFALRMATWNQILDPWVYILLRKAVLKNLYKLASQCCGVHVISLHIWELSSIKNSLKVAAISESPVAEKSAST

The target of this assay is FP receptor (Homo sapiens (Human), UniProt P43088). Briefly: In vitro test of inhibition of human FP receptor activity (PGF2α-induced calcium flux in FP-expressing CHEM1 cells). The conditions noted are these: PGF2α-induced (2 nM) calcium flux in FP-expressing CHEM1 cells; some as mean values from multiple determinations. The assay is classed as cell-based. From the text:
Table 1 below lists the IC50 values from this assay for individual working examples of the invention (some as mean values from multiple independent individual determinations): […]
What is called IC50 is the midpoint of a concentration-inhibition curve. In the case of `COc1ccccc1C(O)(CNC(=O)c1c(C)c(-c2ccccc2)nc2ccc(Br)cc12)C(=O)O` (single isomer, unassigned; (+)) [Example 55, (+)-3-{[(6-Bromo-3-methyl-2-phenylquinolin-4-yl)carbonyl]amino}-2-hydroxy-2-(2-methoxyphenyl)propanoic Acid], the half-maximal inhibitory concentration (IC50) was determined as 78 nM. Take `Cc1c(-c2ccccc2)nc2ccc(Br)cc2c1C(=O)NCC(CC(=O)O)c1ccccn1` (single isomer, unassigned; (-)) [Example 103, (−)-4-{[(6-Bromo-3-methyl-2-phenylquinolin-4-yl)carbonyl]amino}-3-(pyridin-2-yl)butanoic Acid]: the IC50 worked out at 290 nM. Turning to `Cc1c(-c2ccccc2)nc2ccc(Br)cc2c1C(=O)NCC(CC(=O)O)c1ccccc1` (single isomer, unassigned; (-)) [Example 64, (−)-4-{[(6-Bromo-3-methyl-2-phenylquinolin-4-yl)carbonyl]amino}-3-phenylbutanoic Acid], the IC50 amounted to 340 nM. With `Cc1c(-c2ccccc2)nc2ccc(Br)cc2c1C(=O)NCC(CC(=O)O)c1ccccc1OC(F)(F)F` (single isomer, unassigned; (-)) [Example 100, (−)-4-{[(6-Bromo-3-methyl-2-phenylquinolin-4-yl)carbonyl]amino}-3-[2-(trifluoromethoxy)phenyl]butanoic Acid], the IC50 came out at 20 nM.

Consider `Cc1c(-c2ccccc2)nc2ccc(Br)cc2c1C(=O)NCC(C(=O)O)c1ccc(F)cc1` (racemic) [Example 10, (+/−)-3-{[(6-Bromo-3-methyl-2-phenylquinolin-4-yl)carbonyl]amino}-2-(4-fluorophenyl)propanoic Acid], for which the IC50 came to 320 nM. With `Cc1c(-c2ccccc2)nc2ccc(Br)cc2c1C(=O)NCC(CCC(=O)O)c1ccccc1C(F)(F)F` (single isomer, unassigned; (-)) [Example 204, (−)-5-{[(6-Bromo-3-methyl-2-phenylquinolin-4-yl)carbonyl]amino}-4-[2-(trifluoromethyl)phenyl]pentanoic Acid], the IC50 is 3.7 nM. To `Cc1c(-c2ccccc2)nc2ccc(Br)cc2c1C(=O)NCC(C)(C(=O)O)c1ccccc1F` (single isomer, unassigned; (-)) [Example 31, (−)-3-{[(6-Bromo-3-methyl-2-phenylquinolin-4-yl)carbonyl]amino}-2-(2-fluorophenyl)-2-methylpropanoic Acid] belongs 68 nM. `Cc1c(-c2ccccc2)nc2ccc(Br)cc2c1C(=O)NCC(c1ccccc1Cl)S(=O)(=O)CC(=O)O` (single isomer, unassigned) [Example 198, (+/−)-{[2-{[(6-Bromo-3-methyl-2-phenylquinolin-4-yl)carbonyl]amino}-1-(2-chlorophenyl)ethyl]sulfonyl}acetic Acid]: the IC50 came out at 400 nM. To `O=C(O)CCC(CNC(=O)c1c(Cl)c(-c2ccccc2)nc2ccc(Br)cc12)c1ccccc1C(F)(F)F` (single isomer, unassigned; (-)) [Example 216, (−)-5-{[(6-Bromo-3-chloro-2-phenylquinolin-4-yl)carbonyl]amino}-4-[2-(trifluoromethyl)phenyl]pentanoic Acid] belongs 5 nM; to `Cc1c(-c2ccccc2)nc2ccc(Br)cc2c1C(=O)NCC(CCC(=O)O)c1cc(F)cc(F)c1F` (single isomer, unassigned) [Example 232, 5-{[(6-Bromo-3-methyl-2-phenylquinolin-4-yl)carbonyl]amino}-4-(2,3,5-trifluorophenyl)pentanoic Acid], 8.8 nM. As to `Cc1ccc(F)cc1C(CCC(=O)O)CNC(=O)c1c(C)c(-c2ccccc2)nc2ccc(Br)cc12` (single isomer, unassigned; (-)) [Example 207, (−)-5-{[(6-Bromo-3-methyl-2-phenylquinolin-4-yl)carbonyl]amino}-4-(5-fluoro-2-methylphenyl)pentanoic Acid], the IC50 was determined as 10 nM. Regarding `Cc1c(-c2ccccc2)nc2ccc(Br)cc2c1C(=O)NCC(c1ccccc1Cl)N(C)CC(=O)O` (racemic) [Example 187, (+/−)-N-[2-{[(6-Bromo-3-methyl-2-phenylquinolin-4-yl)carbonyl]amino}-1-(2-chlorophenyl)ethyl]-N-methylglycine], the IC50 stood at 36 nM. Regarding `Cc1c(-c2ccccc2)nc2ccc(Br)cc2c1C(=O)NCC(OCC(=O)O)c1ccccc1Cl` (single isomer, unassigned; (-)) [Example 193, (−)-[2-{[(6-Bromo-3-methyl-2-phenylquinolin-4-yl)carbonyl]amino}-1-(2-chlorophenyl)ethoxy]acetic Acid], the IC50 worked out at 150 nM. `Cc1c(-c2ccccc2)nc2ccc(Br)cc2c1C(=O)NCC(F)(C(=O)O)c1ccccc1` (single isomer, unassigned; (+)) [Example 40, (+)-3-{[(6-Bromo-3-methyl-2-phenylquinolin-4-yl)carbonyl]amino}-2-fluoro-2-phenylpropanoic Acid]: the IC50 is 34 nM. For `Cc1c(-c2ccccc2)nc2ccc(Br)cc2c1C(=O)NCC(SCC(=O)O)c1ccccc1Cl` (single isomer, unassigned; (-)) [Example 196, (−)-{[2-{[(6-Bromo-3-methyl-2-phenylquinolin-4-yl)carbonyl]amino}-1-(2-chlorophenyl)ethyl]sulfanyl}acetic Acid], the IC50 came to 12 nM. As for `Cc1c(-c2ccccc2)nc2ccc(Br)cc2c1C(=O)NCC(CCC(=O)O)c1c(F)c(F)cc(F)c1F` (racemic) [Example 228, (+/−)-5-{[(6-Bromo-3-methyl-2-phenylquinolin-4-yl)carbonyl]amino}-4-(2,3,5,6-tetrafluorophenyl)pentanoic Acid], the IC50 turned out to be 4.2 nM. Turning to `Cc1ccc(C(CNC(=O)c2c(C)c(-c3ccccc3)nc3ccc(Br)cc23)CC(=O)O)cc1` (single isomer, unassigned; (+)) [Example 91, (+)-4-{[(6-Bromo-3-methyl-2-phenylquinolin-4-yl)carbonyl]amino}-3-(4-methylphenyl)butanoic Acid], the IC50 is 460 nM.

As for `COc1cccnc1C(CNC(=O)c1c(C)c(-c2ccccc2)nc2ccc(Br)cc12)CC(=O)O` (single isomer, unassigned; (-)) [Example 109, (−)-4-{[(6-Bromo-3-methyl-2-phenylquinolin-4-yl)carbonyl]amino}-3-(3-methoxypyridin-2-yl)butanoic Acid], the IC50 was determined as 75 nM. With `Cc1c(-c2ccccc2)nc2ccc(Br)cc2c1C(=O)NCC(CCC(=O)O)c1ccccc1C(F)(F)F` (racemic) [Example 203, (+/−)-5-{[(6-Bromo-3-methyl-2-phenylquinolin-4-yl)carbonyl]amino}-4-[2-(trifluoromethyl)phenyl]pentanoic Acid], the IC50 was 7.6 nM. With `Cc1c(-c2ccccc2)nc2ccc(Br)cc2c1C(=O)NCC(C(=O)O)c1ccc2c(c1)OCO2` (single isomer, unassigned) [Example 25, 2-(1,3-Benzodioxol-5-yl)-3-{[(6-bromo-3-methyl-2-phenylquinolin-4-yl)carbonyl]amino}propanoic Acid], the IC50 is greater than 1000 nM. Regarding `O=C(O)CCC(CNC(=O)c1c(Cl)c(-c2ccccc2)nc2ccc(Br)cc12)c1ccccc1Cl` (single isomer, unassigned; (-)) [Example 213, (−)-5-{[(6-Bromo-3-chloro-2-phenylquinolin-4-yl)carbonyl]amino}-4-(2-chlorophenyl)pentanoic Acid], the IC50 worked out at 2.8 nM. As for `Cc1cccc(C(CNC(=O)c2c(C)c(-c3ccccc3)nc3ccc(Br)cc23)C(=O)O)c1` (single isomer, unassigned; (-)) [Example 51, (−)-3-{[(6-Bromo-3-methyl-2-phenylquinolin-4-yl)carbonyl]amino}-2-(3-methylphenyl)propanoic Acid], the IC50 turned out to be 42 nM. As to `Cc1c(-c2ccccc2)nc2ccc(Br)cc2c1C(=O)NCC(CCC(=O)O)c1ccccc1Cl` (single isomer, unassigned; (-)) [Example 152, (−)-5-{[(6-Bromo-3-methyl-2-phenylquinolin-4-yl)carbonyl]amino}-4-(2-chlorophenyl)pentanoic Acid], the half-inhibitory concentration (IC50) was determined as 7.9 nM. As to `COc1ccc(F)cc1C(C)(CNC(=O)c1c(C)c(-c2ccccc2)nc2ccc(Br)cc12)CC(=O)O` (single isomer, unassigned; (+)) [Example 133, (+)-4-{[(6-Bromo-3-methyl-2-phenylquinolin-4-yl)carbonyl]amino}-3-(5-fluoro-2-methoxyphenyl)-3-methylbutanoic Acid], the IC50 turned out to be 47 nM. `Cc1c(-c2ccccc2)nc2ccc(Br)cc2c1C(=O)NCC(C)(CC(=O)O)c1ncccc1Cl` (single isomer, unassigned; (-)) [Example 85, (−)-4-{[(6-Bromo-3-methyl-2-phenylquinolin-4-yl)carbonyl]amino}-3-(3-chloropyridin-2-yl)-3-methylbutanoic Acid]: the IC50 was 16 nM. As to `Cc1c(-c2ccccc2)nc2ccc(Br)cc2c1C(=O)NCC(CCC(=O)O)c1cccc(F)c1Cl` (single isomer, unassigned; (+)) [Example 186, (+)-5-{[(6-Bromo-3-methyl-2-phenylquinolin-4-yl)carbonyl]amino}-4-(2-chloro-3-fluorophenyl)pentanoic Acid], the IC50 came out at 17 nM.

As to `COc1ccccc1C(C)(CNC(=O)c1c(C)c(-c2ccccc2)nc2ccc(Br)cc12)C(=O)O` (single isomer, unassigned; (+)) [Example 60, (+)-3-{[(6-Bromo-3-methyl-2-phenylquinolin-4-yl)carbonyl]amino}-2-(2-methoxyphenyl)-2-methylpropanoic Acid], the IC50 came to 120 nM. Take `Cc1c(-c2ccccc2)nc2ccc(Br)cc2c1C(=O)NCC(O)(C(=O)O)c1ccccc1` (racemic) [Example 19, (+/−)-3-{[(6-Bromo-3-methyl-2-phenylquinolin-4-yl)carbonyl]amino}-2-hydroxy-2-phenylpropanoic Acid]: the IC50 was determined as 150 nM.

The values above are taken from patent US11136296B2, “Substituted N-arylethyl-2-arylquinoline-4-carboxamides and use thereof” (Bayer Aktiengesellschaft, priority 2017, dated 2021).
